Experimental data as given in publication PMC9609692, “Alternative Methotrexate Oral Formulation: Enhanced Aqueous Solubility, Bioavailability, Photostability, and Permeability” (Pharmaceutics, 2022).
Blank lines part the entries; values can stand above or below the compound they belong to.

Tests used:
Caco-2 cells [1] = test system: Caco-2 cells; design: method as in PMID 29498663, PMID 31761193; settings: read-out: half-maximal inhibitory concentration (IC50) against Caco-2 cells; cited from earlier work
[2] = In vitro Caco-2 permeation experiment; type: in vitro ADME; settings: human, Caco-2 monolayer, 50 µg/mL MTX
Procedure: The in vitro permeability of MTX and MTX/DM-β-CD formulation was evaluated using Caco-2 cells (passage no 45) and performed like the previously reported method. The cells were seeded (5 × 10^5 cells/well) onto filter inserts from 12-well transwell plates and grown at 37 °C with 5% CO2 for 24 h. The cells were then cultured for three weeks, with the media being replaced on alternate days. Caco-2 cells with TEER ≥ 500 Ω·cm^2 were used in this experiment, which is indicative of adequate monolayer formation.
To evaluate the A to B transfer, the medium from each well was replaced with prewarmed HBSS (washing of monolayer) and maintained at 37 °C for 15 min. The HBSS solution on both sides of the cell monolayer was removed by decanting and aspiration from the lower end of the plate well. Then, 0.5 mL of HBSS (pH 7.4) medium containing 50 µg/mL of MTX alone or eqvt. concentration of MTX/DM-β-CD formulation was placed to the dosing compartment (A) and 1.5 mL of fresh HBSS in the receiving compartment (B). […] MTX was quantified at m/z 455.2 ⟶ 308.1 while berberine at m/z 336.1 ⟶ 320.0.
The apparent permeability coefficient (Papp, cm/s) was calculated as:(3) Papp=(dQ/dt)/(C0×A)
The efflux ratio (ER) was calculated as:(4) ER=Papp (B→A)/Papp (A→B) where, Papp (B → A) and Papp (A → B) represents the apparent permeability of the investigated formulations.

Caco-2 cells [3] = assay: MTT cytotoxicity assay; type: cell-based, human; settings: up to 200 µM, 24 h incubation
Procedure: An MTT assay was used to assess the potential cytotoxic behavior of MTX and MTX/DM-β-CD on human intestinal epithelial cancer cells (Caco-2). The Caco-2 cells were grown in DMEM supplemented with 10% FBS, 1% v/v sodium pyruvate, L-glutamine, penicillin, and MEM non-essential amino acids. The cells (2 × 10^4 cells/well) were then seeded onto 96-well transwell plates and incubated at 37 °C with 5% CO2 for 24 h. New medium containing the tested formulations i.e., MTX and MTX/DM-β-CD (IC4), with varying concentrations, were added and incubated for 24 h. The culture medium was then aspirated, and the viability of the cells was determined by adding 20 μL/well of MTT solution to each 96-well plate and incubating for another 4 h. The formazan crystals were dissolved by adding 150 μL/well DMSO. The developed formazan was assayed at 570 nm, using a microplate reader with untreated cells serving as a control. All the tests were carried out in two microplates with six parallel wells each.

[4] = In vivo pharmacokinetic study after oral administration; design: species or system Sprague-Dawley rats; settings: rats, equiv. 20 mg/kg MTX, n = 6
Procedure: To assess the in vivo pharmacokinetic parameters of free MTX and MTX-CD IC formulations, 30 male Sprague-Dawley rats (6–8 weeks old, weighing 280 ± 20 g) were used (Nara Biotech., Seoul, Korea). All the animals were fed with a normal laboratory diet and water and left for acclimatization in a laboratory environment for 3 days at 23–25 °C/50–55% RH. Care and handling of animals complied with the provisions of guidelines defined and agreed upon by the Institutional Animal Care and Use Committee at the Kyungpook National University (permit number. 2019-0054).
Before the experiment, the animals were divided into five groups with 6 animals per group and made to fast overnight. Each rat, anesthetized with ether, was fixed on a surgical board in the supine position by a thread. A polyethylene tube containing 50 IU/mL of heparin in saline was inserted into the right femoral artery of the rat for cannulation. Then, either 1 mL aqueous suspension of free MTX or the four MTX-CD IC formulations (Equiv. to 20 mg/kg of MTX) was administered orally to each of the rats using oral gavage. Blood samples (~0.3 mL) were drawn from the planted tube at various time periods of 5, 15, 30, 60, 120, 240, 480, 720, and 1440 min after the oral administration. The samples were then immediately transferred into heparin-containing microtubes and centrifuged at 10,000 rpm for 10 min to extract the plasma. The extracted plasma samples were transferred to other microtubes and stored at −20 °C until further analysis by HPLC.
Plasma (90 μL) was mixed with 10 μL of theophylline solution (1000 μg/mL in MeOH) as the internal standard and 100 μL of methanol, respectively. The samples (200 μL) were then centrifuged at 13,000 rpm for 10 min and the upper clear supernatant layer was drawn and injected into the HPLC system (20 μL) for the quantification of MTX. In addition, the blood samples drawn at pre-dose (0 h) were used to draw a six-point calibration plot. The Slope of the graph was linear with R^2 = 0.995 over the range of 25–2000 ng/mL. The mobile phase composition, flow rate, analytical column used, and UV wavelength of the HPLC method was similar to that described in Section 2.3. The pharmacokinetic (PK) parameters such as maximal plasma concentration (Cmax), time to reach Cmax (Tmax), were obtained from the plasma concentration vs. time plots. Moreover, the area under the plasma concentration vs. time curve (AUC0–∞) was calculated using the linear trapezoidal summation rule and elimination half-life (t1/2), and elimination rate constant (Kel) were obtained using non-compartmental model WinNonlin software (Pharsight Corp., Mountain View, CA, USA). Differences in the PK parameters were assessed with the one-way ANOVA test and a p value of less than 0.05 (p < 0.05) was considered statistically significant.

[5] = for doses >40 mg/m^2; cited from earlier work
[6] = cited from earlier work
[7] = Photostability assessment; type: physicochemical; settings: powder, 20 days, 25 °C/60% RH, 1.2 million lux·hr
Procedure: The free MTX powder and the prepared IC formulations were subjected to UV irradiation for a period of 20 days. The powdered samples were spread over the bottom surface of transparent glass vials and stored at 25 °C/60% RH in a photostability chamber (Model 6545-2; Caron, Marietta, OH, USA). There, the samples were exposed to a light source of 1.2 million lux·hr intensity. At scheduled time intervals, a few mg of the sample was drawn, and assayed for the drug content by HPLC method, as described above. At the end of the study period, the samples were physically inspected for any physical changes on the stability of MTX.

[8] = Particle size distribution by laser diffraction; type: physicochemical; settings: powder
Procedure: The complete particle size distribution of free MTX powder and all four MTX-CD IC formulations was investigated by laser diffraction (Mastersizer 3000; Malvern Instruments, Malvern, UK). The particle size/distribution is expressed as Dx10, Dx50, and Dx90, taken from the cumulative distribution, where the particle diameters are measured at the 10th, 50th, and 90th percentiles, respectively. The experiments were performed in triplicate.

[9] = Phase solubility study of MTX in cyclodextrin solutions; type: physicochemical; settings: MTX with the cyclodextrin, aqueous solution, 25 °C, 1:1 complex
Procedure: The degree of complexation between MTX and β-CDs was determined through phase solubility experiments, as established by Higuchi and Conners. Briefly, an excess of MTX was added to the 10 mL aqueous solution of increasing concentrations (0 to 15 mM) containing each of β-CD, HP-β-CD, M-β-CD, and DM-β-CD. The samples tubes were then vortexed for a few seconds and placed in a water bath maintained at 100 rpm in 25 °C for 5 days (Maxturdy-30; Daihan Scientific, Wonju, Korea) to obtain the saturated complex suspension. The suspension samples obtained were then centrifuged at 10,000 rpm for 10 min and the supernatant was collected, and filtered using a 0.45 µm syringe filter. The samples were then diluted with a mobile phase to obtain the suitable concentrations before being quantified using a HPLC system. All concentrations were made in triplicate (n = 3).
The outcomes of the phase solubility tests were plotted against the known CD and MTX concentration in the sample and the resulting regression profiles was used to derive the association constant (Kα). The apparent association constant (Kα) was calculated from the phase solubility curve according to the following equation:(1) Kα=D :CD/D×CD=Slope/So1−Slope
The complexation efficiency (CE) of the IC system was calculated from the Slope of the phase solubility profiles. (2) CE=D :CD/CD=So×Kα=Slope/1−Slope

[10] = male, Sprague-Dawley, rat, plasma

Compound: CC(=O)O[C@@]12CO[C@@H]1C[C@H](O)[C@@]1(C)C(=O)[C@H](O)C3=C(C)[C@@H](OC(=O)[C@H](O)[C@@H](NC(=O)OC(C)(C)C)c4ccccc4)C[C@@](O)([C@@H](OC(=O)c4ccccc4)[C@H]21)C3(C)C [docetaxel]
IC50 (Caco-2 cells [1]): 70 µM

Compound: CN(Cc1cnc2nc(N)nc(N)c2n1)c1ccc(C(=O)N[C@@H](CCC(=O)O)C(=O)O)cc1 [MTX, Methotrexate]
Papp A→B at 1 h, 50 µg/mL ([2]; HBSS pH 7.4, 1 h, read-out: Papp A to B transport): 5.7 ± 1.4 nm/s
efflux ratio at 1 h, 50 µg/mL ([2]; HBSS pH 7.4, read-out: efflux ratio (B to A/A to B)): 8
cytotoxicity against Caco-2 cells (Caco-2 cells [3]): no substantial cytotoxicity
AUC [4, 10]: 1.74 ± 0.295 µg·h/mL
Tmax [4, 10]: 1.13 ± 0.23 h
half-life [4, 10]: 5.4 ± 0.72 h
k el [4, 10]: 3.61e-05 s⁻¹
Cmax [4]: 0.26563 ± 0.05705 µg/mL
bioavailability [5]: ~ 18%
C logP [6]: 0.53
decrease in MTX concentration after UV irradiation [7]: 36.8 ± 1.7%
Dx (10) [8]: 3.60 ± 0.48 μm
Dx (50) [8]: 14.03 ± 2.97 μm
Dx (90) [8]: 103.73 ± 12.13 μm

Compound: COc1cccc2c1C(=O)c1c(O)c3c(c(O)c1C2=O)C[C@@](O)(C(=O)CO)C[C@@H]3O[C@H]1C[C@H](N)[C@H](O)[C@H](C)O1 [doxorubicin]
IC50 (Caco-2 cells [1]): 5 µM

Other lines, results leading:

Stability Constant (Kα) [9]: 574.48 M⁻¹
Compound: methyl-β-cyclodextrin [M-β-CD]

Stability Constant (Kα) [9]: 3114.69 M⁻¹
Compound: COCC1OC2OC3C(COC)OC(OC4C(COC)OC(OC5C(COC)OC(OC6C(COC)OC(OC7C(COC)OC(OC8C(COC)OC(OC1C(O)C2OC)C(OC)C8O)C(OC)C7O)C(OC)C6O)C(OC)C5O)C(OC)C4O)C(OC)C3O (stereo not drawn) [DM-β-CD, heptakis (2,6-di-O-methyl)-β-cyclodextrin]

Stability Constant (Kα) [9]: 552.25 M⁻¹
Compound: OC[C@H]1O[C@@H]2O[C@H]3[C@H](O)[C@@H](O)[C@@H](O[C@H]4[C@H](O)[C@@H](O)[C@@H](O[C@H]5[C@H](O)[C@@H](O)[C@@H](O[C@H]6[C@H](O)[C@@H](O)[C@@H](O[C@H]7[C@H](O)[C@@H](O)[C@@H](O[C@H]8[C@H](O)[C@@H](O)[C@@H](O[C@H]1[C@H](O)[C@H]2O)O[C@@H]8CO)O[C@@H]7CO)O[C@@H]6CO)O[C@@H]5CO)O[C@@H]4CO)O[C@@H]3CO [β-CD, β-cyclodextrin]

Stability Constant (Kα) [9]: 433.56 M⁻¹
Compound: 2-hydroxylpropyl-β-CD [HP-β-CD]
